From ChEMBL document CHEMBL1155201, “Structure-activity studies on seco-pancratistatin analogs: potent inhibitors of human cytochrome P450 3A4” (Bioorg Med Chem Lett, 2009) come the findings set out here.

For series [1], the target named is T1, Cytochrome P450 3A4 (Homo sapiens, UniProt P08684). The series can be described thus: Inhibition of human recombinant CYP3A4 assessed as biotransformation of 7-benzyloxyquinoline to 7-hydroxyquinoline measured every 15 mins by fluorescence intensity analysis. It is filed as ADME.
T1 sequence (P08684 whole entry): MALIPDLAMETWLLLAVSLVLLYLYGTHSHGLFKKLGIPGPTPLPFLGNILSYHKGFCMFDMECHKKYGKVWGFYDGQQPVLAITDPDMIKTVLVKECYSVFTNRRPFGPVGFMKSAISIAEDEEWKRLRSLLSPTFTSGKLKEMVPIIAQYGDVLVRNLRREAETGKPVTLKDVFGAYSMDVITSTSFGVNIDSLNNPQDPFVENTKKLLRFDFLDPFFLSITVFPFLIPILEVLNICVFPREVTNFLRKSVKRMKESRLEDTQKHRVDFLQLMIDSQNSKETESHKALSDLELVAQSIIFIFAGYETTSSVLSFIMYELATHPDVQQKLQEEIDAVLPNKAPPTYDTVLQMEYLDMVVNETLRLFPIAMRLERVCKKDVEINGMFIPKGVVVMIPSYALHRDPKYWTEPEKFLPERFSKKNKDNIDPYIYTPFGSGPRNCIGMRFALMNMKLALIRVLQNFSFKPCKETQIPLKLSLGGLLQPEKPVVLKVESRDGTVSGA
Series [2] addresses T1, Cytochrome P450 3A4. Put plainly: Inhibition of human recombinant CYP3A4 assessed as biotransformation of 7-benzyloxyquinoline to 7-hydroxyquinoline at 10 uM measured every 15 mins by fluorescence intensity analysis. It is filed as ADME. Particulars: recombinant enzyme, 0.25 h; call rule not given here.

`COCO[C@@H]([C@@H]1OC(C)(C)O[C@H]1CO[Si](C)(C)C(C)(C)C)[C@@H](CNC(=O)OC(C)(C)C)c1ccc2c(c1)OCO2`: on Cytochrome P450 3A4 [1], the Ki (as a rule, the dissociation constant of the complex between target and ligand, obtained from inhibition or displacement) is 320 nM.
For the molecule `COCO[C@@H]([C@@H]1OC(C)(C)O[C@H]1CO)[C@@H](CNC(=O)c1ccccc1)c1ccc2c(c1)OCO2`, the Ki at Cytochrome P450 3A4 [1] stood at 1550 nM.
For the molecule `CC1(C)O[C@@H]([C@H](OC(=O)c2ccccc2)[C@@H](CN=[N+]=[N-])c2ccc3c(c2)OCO3)[C@H](CO[Si](C)(C)C(C)(C)C)O1`, the “inhibition (INH)” value at Cytochrome P450 3A4 [2] is given as “Not Active”.
As for `CC1(C)O[C@@H]([C@H](O)[C@@H](CNC(=O)c2ccccc2)c2ccc3c(c2)OCO3)[C@H](CO)O1`, the “inhibition (INH)” value at Cytochrome P450 3A4 [2] was “Not Active”.
As to `COCO[C@@H]([C@@H]1OC(C)(C)O[C@H]1CO[Si](c1ccccc1)(c1ccccc1)C(C)(C)C)[C@@H](CNC(=O)c1ccccc1)c1ccc2c(c1)OCO2`, on Cytochrome P450 3A4 [1], the Ki was determined as 580 nM.
Regarding `O=C(NC[C@@H](c1ccc2c(c1)OCO2)[C@@H](O)[C@H](O)[C@@H](O)CO)c1ccccc1`, at Cytochrome P450 3A4 [2], the “inhibition (INH)” value was “Not Active”.
Take `COCO[C@@H]([C@@H]1OC(C)(C)O[C@H]1COS(=O)(=O)c1ccc(C)cc1)[C@@H](CNC(=O)c1ccccc1)c1ccc2c(c1)OCO2`: the Ki on Cytochrome P450 3A4 [1] was found to be 70 nM.
For `COCO[C@@H]([C@@H]1OC(C)(C)O[C@H]1CO[Si](C)(C)C(C)(C)C)[C@@H](CN=[N+]=[N-])c1ccc2c(c1)OCO2`, the “inhibition (INH)” value on Cytochrome P450 3A4 [2] was “Not Active”.
Take `CC1(C)O[C@@H]([C@H](O)[C@@H](CNC(=O)c2ccccc2)c2ccc3c(c2)OCO3)[C@H](CO[Si](C)(C)C(C)(C)C)O1`: the Ki on Cytochrome P450 3A4 [1] came to 170 nM.
As for `COCO[C@@H]([C@@H]1OC(C)(C)O[C@H]1CO[Si](C)(C)C(C)(C)C)[C@@H](CNC(=O)c1ccccc1)c1ccc2c(c1)OCO2`, the Ki at Cytochrome P450 3A4 [1] was determined as 30 nM.
Same read-out and setting: under `COCO[C@@H]([C@@H]1OC(C)(C)O[C@H]1COC(C)=O)[C@@H](CNC(=O)c1ccccc1)c1ccc2c(c1)OCO2` stands 1010 nM.
